Test results published in article PMC8120209, “Longitudinal evaluation of a novel BChE PET tracer as an early in vivo biomarker in the brain of a mouse model for Alzheimer disease” (Theranostics, 2021).

Assays:
Design in all cases: Eurofins SafetyScreen44 radioligand displacement, inhibition of control specific binding
5-HT2B(h) = molecular target: T1, 5-HT2B(h) (Homo sapiens, UniProt P41595); assay: biochemical; conditions: reference compound
T1 construct: gene HTR2B

N neuronal α7 (h) [1] = molecular target: T2, N neuronal α7 (h) (Homo sapiens, UniProt P36544); conditions: reference compound; binder
T2 construct: gene CHRNA7
T2 sequence (P36544 whole entry): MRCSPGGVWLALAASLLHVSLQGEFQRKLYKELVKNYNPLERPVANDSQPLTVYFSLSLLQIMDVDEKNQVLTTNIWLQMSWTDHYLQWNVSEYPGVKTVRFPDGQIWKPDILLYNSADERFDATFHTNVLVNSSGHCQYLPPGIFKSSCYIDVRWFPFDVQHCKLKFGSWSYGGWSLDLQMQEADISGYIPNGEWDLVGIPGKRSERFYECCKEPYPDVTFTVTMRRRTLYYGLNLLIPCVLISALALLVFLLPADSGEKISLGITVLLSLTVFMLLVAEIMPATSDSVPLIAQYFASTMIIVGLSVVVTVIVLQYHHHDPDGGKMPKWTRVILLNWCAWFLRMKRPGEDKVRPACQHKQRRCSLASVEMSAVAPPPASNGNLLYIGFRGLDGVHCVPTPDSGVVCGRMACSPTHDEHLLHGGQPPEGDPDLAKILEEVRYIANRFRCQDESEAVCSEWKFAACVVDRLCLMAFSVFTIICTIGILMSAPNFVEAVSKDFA

N neuronal α7 (h) [2] = molecular target: T2, N neuronal α7 (h); conditions: reference compound; binder; remark: listed apart in the source
M5(h) = molecular target: T3, M5(h) (Homo sapiens, UniProt P08912); assay: biochemical; conditions: reference compound
T3 construct: gene CHRM5
T3 sequence (P08912 whole entry): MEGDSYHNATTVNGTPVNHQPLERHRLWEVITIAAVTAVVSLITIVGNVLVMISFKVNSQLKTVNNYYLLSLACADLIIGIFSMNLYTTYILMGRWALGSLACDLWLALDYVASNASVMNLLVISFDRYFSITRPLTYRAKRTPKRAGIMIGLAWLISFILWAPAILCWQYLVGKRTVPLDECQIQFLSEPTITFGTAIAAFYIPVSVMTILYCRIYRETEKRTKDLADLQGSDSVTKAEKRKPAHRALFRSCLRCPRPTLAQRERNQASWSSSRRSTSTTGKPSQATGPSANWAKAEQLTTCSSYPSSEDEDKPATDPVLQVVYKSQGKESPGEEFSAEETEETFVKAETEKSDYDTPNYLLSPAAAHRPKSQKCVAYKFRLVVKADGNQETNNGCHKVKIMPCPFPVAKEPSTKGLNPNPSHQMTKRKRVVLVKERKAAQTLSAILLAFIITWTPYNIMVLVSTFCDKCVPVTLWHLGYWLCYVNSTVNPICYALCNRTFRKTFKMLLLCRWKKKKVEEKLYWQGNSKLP

adrenergic receptor α1A [3] = molecular target: T4, adrenergic receptor α1A (Homo sapiens, UniProt P35348); conditions: reference compound; binder
T4 construct: gene ADRA1A
T4 sequence (P35348 1-466): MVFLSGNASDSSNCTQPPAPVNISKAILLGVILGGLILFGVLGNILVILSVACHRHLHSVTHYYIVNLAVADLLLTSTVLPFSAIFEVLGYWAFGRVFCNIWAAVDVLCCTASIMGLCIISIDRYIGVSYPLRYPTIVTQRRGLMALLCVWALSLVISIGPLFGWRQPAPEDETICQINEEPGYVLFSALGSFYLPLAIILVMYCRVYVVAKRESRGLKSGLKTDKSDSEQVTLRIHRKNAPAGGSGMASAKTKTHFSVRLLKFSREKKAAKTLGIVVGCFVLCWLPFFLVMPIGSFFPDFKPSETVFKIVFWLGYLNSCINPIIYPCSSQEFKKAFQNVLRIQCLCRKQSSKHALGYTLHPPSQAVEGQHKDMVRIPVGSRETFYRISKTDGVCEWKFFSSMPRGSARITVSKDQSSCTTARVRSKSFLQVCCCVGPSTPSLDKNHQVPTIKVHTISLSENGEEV

adrenergic receptor α1A [4] = molecular target: T4, adrenergic receptor α1A; conditions: reference compound; binder; remark: listed apart in the source

T1 sequence (P41595 whole entry): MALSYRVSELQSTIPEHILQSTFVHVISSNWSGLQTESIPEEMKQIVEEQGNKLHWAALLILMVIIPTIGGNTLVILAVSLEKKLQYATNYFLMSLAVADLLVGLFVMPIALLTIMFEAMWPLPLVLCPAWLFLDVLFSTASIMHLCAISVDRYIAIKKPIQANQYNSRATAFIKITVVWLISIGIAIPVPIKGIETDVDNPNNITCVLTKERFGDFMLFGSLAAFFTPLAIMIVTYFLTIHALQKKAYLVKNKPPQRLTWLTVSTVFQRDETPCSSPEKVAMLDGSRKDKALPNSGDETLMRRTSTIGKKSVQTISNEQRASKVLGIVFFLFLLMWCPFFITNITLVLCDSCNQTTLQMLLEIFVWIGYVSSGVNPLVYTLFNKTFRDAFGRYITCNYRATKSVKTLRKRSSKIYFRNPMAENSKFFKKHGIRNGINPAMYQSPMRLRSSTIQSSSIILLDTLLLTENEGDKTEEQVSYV

`COc1cc(CC(C)N)c(OC)cc1I` (racemic) [(±)DOI] was tested, and the Ki (5-HT2B(h)) was 1.8 nM.

With `Clc1ccc(C2CC3CCC2N3)cn1` (racemic) [(±)epibatidine] the IC50 (N neuronal α7 (h) [1]) was 86 nM and the Ki (N neuronal α7 (h) [2]) was 75 nM.

Compound `C[N+]1(C)CCC(OC(=O)C(c2ccccc2)c2ccccc2)CC1` [4-DAMP] has a Ki (M5(h)) of 0.5 nM.

`COc1cccc(OC)c1OCCNCC1COc2ccccc2O1` (stereo not drawn) [WB 4101] gave an IC50 (adrenergic receptor α1A [3]) of 0.61 nM and a Ki (adrenergic receptor α1A [4]) of 0.3 nM.
